US6750211B2, “Diimino compounds for use as modulators of cell regulation” (Emory University, priority 1999, dated 2004)

Tested on: J774A.1 cells
Assay: Suppression of the sphingosine "burst" on change to new medium
Type: cell-based, murine
Method: J774A.1 cells (No. TIB 67, a murine macrophage-like transformed cell line) were obtained from the American Type Culture Collection (Rockville, Md.) and grown in DMEM and 10% FBS and sodium bicarbonate (3.7 g/l) in a spinner flask at 37° C. and an atmosphere of 5% CO2. Cells were passaged every two to three days by a 1:4 dilution with fresh medium to a density of approximately 2.5×10^5 cells/ml. Cells were used between passages 3 and 24.
Unless indicated differently, suspended cells were removed from the spinner flask, collected by gentle centrifugation (in a table top centrifuge), resuspended in new medium, added to 60 mm tissue culture dishes at 5 to 7.5×10^5 cells per 2 ml of medium. Under these conditions, the cells adhere to the dish rather than grow in suspension. The cells were incubated at 37° C., 5% CO2, for three days before beginning by removing the conditioned medium and adding fresh medium to initiate the “burst”.
After incubation of the cells, the medium was removed, 0.5 ml of ice-cold methanol added, and the cells scraped from the dishes with a rubber spatula. The plates were scraped again with 0.4 ml of deionized water, followed by 0.4 ml of methanol. Cells and washes were pooled in 13×100 mm test tubes, 200 to 300 pmol of C20-sphinganine added as an internal standard, and the long-chain bases extracted- and analyzed by HPLC (as described by Merrill, A. H., Jr., et al., (1988) Anal. Biochem. 171, 373-381) with C20-sphinganine as an internal standard.

IC50 (Mus musculus, J774.A1, titration with purified fraction III added with DMEM, concentration approximated from TNBS amine estimate, FIG. 9, read-out: apparent concentration for 50% suppression of the sphingosine burst) [µM] | Compound | fold more concentrated than conditioned medium (volume to volume comparison of amount needed to suppress the burst) (compared with conditioned medium) | volume giving 50% suppression of the sphingosine burst (purified fraction III (amine concentration about 200 mM) added with DMEM, FIG. 9) [µL] | share of the suppression of the sphingosine burst accounted for by the ammonia concentration of conditioned medium (at most time points, calculated from FIGS. 6A and B, FIG. 7) | suppression of the sphingosine burst (in words) (sphingosine measured after adding medium to J774 cells)
1000 to 3000 | N=C1NC(=N)C(CCCCN)NC1CCCCN (single isomer, unassigned) [fraction III, 2,6-bis-(ω-aminobutyl)-3,5-diimino-piperazine] | greater than 200 fold | 30 |  | 
 | N [NH4^+, reference compound] |  |  | greater than 50% | shown to suppress the sphingosine burst
